Data taken from PubChem BioAssay (NCI).
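Dose response: 5 concentrations. Exposure: 48 h. Format: 96-well plates. Endpoint: linear interpolation; highest concentration if not reached. The concentration for full growth arrest is given as TGI.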

Experiments:
Assay in all cases: NCI-60 cell line screen, 48 h
786-0 renal = test system: 786-0 renal
A549 NSCLC = test system: A549 NSCLC
ACHN renal = test system: ACHN renal
BT-549 breast = test system: BT-549 breast
CAKI-1 renal = test system: CAKI-1 renal
CCRF-CEM leukemia = test system: CCRF-CEM leukemia
COLO 205 colon = test system: COLO 205 colon
DU-145 prostate = test system: DU-145 prostate
EKVX NSCLC = test system: EKVX NSCLC
HCT-116 colon = test system: HCT-116 colon
HCT-15 colon = test system: HCT-15 colon
HL-60(TB) leukemia = test system: HL-60(TB) leukemia
HOP-62 NSCLC = test system: HOP-62 NSCLC
HOP-92 NSCLC = test system: HOP-92 NSCLC
HS 578T breast = test system: HS 578T breast
HT29 colon = test system: HT29 colon
IGROV1 ovarian = test system: IGROV1 ovarian
K-562 leukemia = test system: K-562 leukemia
KM12 colon = test system: KM12 colon
LOX IMVI melanoma = test system: LOX IMVI melanoma
M14 melanoma = test system: M14 melanoma
MALME-3M melanoma = test system: MALME-3M melanoma
MCF7 breast = test system: MCF7 breast
MDA-MB-435 = test system: MDA-MB-435
MDA-N = test system: MDA-N
MOLT-4 leukemia = test system: MOLT-4 leukemia
NCI-H226 lung = test system: NCI-H226 lung
NCI-H23 lung = test system: NCI-H23 lung
NCI-H460 lung = test system: NCI-H460 lung
NCI-H522 lung = test system: NCI-H522 lung
NCI/ADR-RES ovarian = test system: NCI/ADR-RES ovarian
OVCAR-3 ovarian = test system: OVCAR-3 ovarian
OVCAR-4 ovarian = test system: OVCAR-4 ovarian
OVCAR-5 ovarian = test system: OVCAR-5 ovarian
OVCAR-8 ovarian = test system: OVCAR-8 ovarian
PC-3 prostate = test system: PC-3 prostate
RPMI-8226 leukemia = test system: RPMI-8226 leukemia
SF-268 CNS = test system: SF-268 CNS
SF-295 CNS = test system: SF-295 CNS
SK-MEL-2 melanoma = test system: SK-MEL-2 melanoma
SK-MEL-28 melanoma = test system: SK-MEL-28 melanoma
SK-MEL-5 melanoma = test system: SK-MEL-5 melanoma
SK-OV-3 ovarian = test system: SK-OV-3 ovarian
SN12C renal = test system: SN12C renal
SNB-19 CNS = test system: SNB-19 CNS
SNB-75 CNS = test system: SNB-75 CNS
SR leukemia = test system: SR leukemia
SW-620 colon = test system: SW-620 colon
T-47D breast = test system: T-47D breast
TK-10 renal = test system: TK-10 renal
U251 CNS = test system: U251 CNS
UACC-257 melanoma = test system: UACC-257 melanoma
UACC-62 melanoma = test system: UACC-62 melanoma
UO-31 renal = test system: UO-31 renal

Measured: TGI

c1ccc(N=C(Nc2ccccc2)N2CCCC2)cc1
> 100 µM: all assays above
